Source: paper PMC6407204, “Oral administration of the cannabigerol derivative VCE-003.2 promotes subventricular zone neurogenesis and protects against mutant huntingtin-induced neurodegeneration” (Translational Neurodegeneration, 2019)

Experiments:
hERG channel = hERG channel (Homo sapiens, UniProt Q12809); experiment: hERG channel inhibition, IonWorks HT electrophysiology in CHO-hERG cells
[1] = test system: mutant huntingtin-induced neurodegeneration; experiment: Viral model of Huntington's disease, AAV expression of mutant huntingtin (AAV-htt94Q) in mouse striatum; type: in vivo, C57BL/6 N mice; settings: 10 mg/kg/day oral
Protocol: Male C57BL/6 N mice (10 weeks old) were housed under standard conditions (12-h light/dark cycle) in groups with access to food and water ad libitum. All experiments were performed in accordance with European Union guidelines and approved by the Animal Research Ethics Committee of Complutense and Córdoba University. Procedures were designed to minimize the number of animals used and their suffering. Constructs expressing CFP-tagged human huntingtin exon 1 harboring a pathogenic polyQ tract of 94 CAG repeats or a normal, non-pathogenic polyQ tract of 16 CAG repeats (kindly provided by Dr. José J. Lucas, Severo Ochoa Molecular Biology Center, Madrid, Spain) were employed using an AAV1/AAV2 mixed serotype, generated by polyethyleneimine transfection of HEK293T cells and subsequent purification in iodixanol gradient. Vectors were injected stereotactically (in 3 μl PBS) into the dorsal striatum in a bilateral manner at coordinates (mm to bregma): antero-posterior + 0.5, lateral ±2.5, dorso-ventral − 3.5 as previously described. VCE-003.2 (10 mg/kg) or vehicle (sesame oil) were orally administered once daily (Fig. 1), and for neurogenesis experiments BrdU (100 mg/kg) was administered i.p. twice daily on the first week after viral injection. RotaRod test was conducted prior to drug injections to avoid acute effects of the compounds under investigation. RotaRod started at 4 rpm, with an acceleration rate of 6 rpm/min until either maximum speed is reached or the mouse falls from the apparatus. Maximum time assay was 10 min. Basal RotaRod performance was determined 6 days prior to striatal injury in 3 consecutive days with 3 trials/day (30 min of rest between each trial), and groups with equivalent motor function were assigned. RotaRod test was performed during 3 consecutive days prior to sacrifice and plasma was obtained for peripheral biomarker analyses. All experiments included a minimum of 6 mice per condition. The precise number of animals analyzed in each experiment is indicated in the corresponding figure legends.
Free floating coronal brain slices (30 μm) were processed as previously described. In brief, after blocking with 10% goat serum, brain sections were incubated with the indicated primary antibodies followed by secondary antibody incubation (2 h at room temperature). The appropriate mouse, rat and rabbit highly cross-adsorbed AlexaFluor 488, AlexaFluor 594 and AlexaFluor 647 secondary antibodies (1:500; Molecular Probes, Leyden, The Netherlands) were used. Samples were subsequently incubated with DAPI (1:5000, Roche) for 10 min, washed with PBS and mounted in Mowiol. All immunofluorescence data were obtained in a blinded manner by independent observers in a minimum of 6 correlative slices, from 1-in-10 series located between − 0.4 to + 1.6 mm to bregma. The lateral SVZ zone was delineated by using DAPI-counterstained cell nuclei, and analyses were performed in the upper dorsal tier, in which positively-labelled cells and immunoreactivity were quantified not beyond 100 μm of the SVZ. Confocal fluorescence images were acquired by using LAS-X software (Wetzlar, Germany) and SP8 microscope with 2 passes by Kalman filter, a 1024X1024 collection box, and pinhole AU 1. […] Cells were quantified within a 20 × 20 μm counting frame, which randomly sampled within a 122.8 × 68.9 μm counting grid. Cells that contacted the lateral or upper exclusion plane were excluded. The total number of cells counted was divided by the number of sampled counting frames and multiplied by its size to obtain the density of positive cells. Co-localization was confirmed by orthogonal projection of 18 z-stack files (1-μm each), and data were expressed as cells/mm^2. […]

[2] = AAV-htt16Q and AAV-htt94Q mice, 30 days
[3] = AAV-htt94Q mice, 4 weeks after lesion

Chain of hERG channel (Q12809 whole entry): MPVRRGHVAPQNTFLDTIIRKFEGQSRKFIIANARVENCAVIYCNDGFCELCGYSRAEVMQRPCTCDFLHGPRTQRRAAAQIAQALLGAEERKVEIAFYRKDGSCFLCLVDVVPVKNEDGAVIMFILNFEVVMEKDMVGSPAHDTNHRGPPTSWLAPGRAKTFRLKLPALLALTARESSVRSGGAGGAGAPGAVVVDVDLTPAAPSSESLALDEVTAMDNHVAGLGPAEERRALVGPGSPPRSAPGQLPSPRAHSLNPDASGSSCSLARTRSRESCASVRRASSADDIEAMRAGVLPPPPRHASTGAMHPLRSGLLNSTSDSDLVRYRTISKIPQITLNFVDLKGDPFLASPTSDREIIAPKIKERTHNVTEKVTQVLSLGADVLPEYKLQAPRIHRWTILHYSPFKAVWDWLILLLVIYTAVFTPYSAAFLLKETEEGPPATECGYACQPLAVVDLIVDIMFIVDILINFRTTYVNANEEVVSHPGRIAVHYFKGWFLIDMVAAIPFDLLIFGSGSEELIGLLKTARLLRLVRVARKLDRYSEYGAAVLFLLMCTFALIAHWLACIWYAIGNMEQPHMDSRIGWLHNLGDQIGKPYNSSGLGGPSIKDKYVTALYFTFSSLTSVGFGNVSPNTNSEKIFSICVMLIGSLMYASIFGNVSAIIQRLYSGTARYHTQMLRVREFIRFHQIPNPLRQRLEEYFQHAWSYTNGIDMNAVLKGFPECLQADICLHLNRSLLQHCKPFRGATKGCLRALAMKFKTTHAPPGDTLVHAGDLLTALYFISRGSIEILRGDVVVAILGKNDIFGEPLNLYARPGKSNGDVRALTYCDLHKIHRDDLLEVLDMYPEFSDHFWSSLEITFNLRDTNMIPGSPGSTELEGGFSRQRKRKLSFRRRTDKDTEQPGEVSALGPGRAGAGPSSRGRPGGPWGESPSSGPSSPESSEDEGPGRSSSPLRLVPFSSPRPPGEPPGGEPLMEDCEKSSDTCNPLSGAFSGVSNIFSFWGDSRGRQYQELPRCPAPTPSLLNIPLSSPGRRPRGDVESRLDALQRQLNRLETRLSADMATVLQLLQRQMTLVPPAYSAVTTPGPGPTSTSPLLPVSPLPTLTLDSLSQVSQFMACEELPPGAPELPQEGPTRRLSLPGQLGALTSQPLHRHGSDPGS

CCCCCC1=C(NCC)C(=O)C(CC=C(C)CCC=C(C)C)=C(O)C1=O [VCE-003.2, 2-(3,7-dimethyl-octa-2,6-dienyl)-6-ethylamino-3-hydroxy-5-pentyl-(1,4) benzoquinone]
IC50 (hERG channel): > 25 µM
doublecortin-positive neuroblasts in striatum [1, 2]: increased doublecortin-expressing cells
effective neurogenesis, double-positive NeuN/BrdU neurons [1, 2]: effective in promoting neurogenesis
Ascl1-positive transit amplifying progenitors [1, 3]: further promoted Ascl1-positive cell expansion
proliferating SVZ neural stem cells, GFAP/Ki-67 double-labelled [1, 3]: increased the number of proliferating GFAP-positive cells
motor performance, RotaRod latency to fall ([1]; AAV-htt94Q mice, 14 days, vs vehicle): performed better in the RotaRod test
MSN degeneration, DARPP-32 and NeuN immunofluorescence ([1]; AAV-htt94Q mice, 30 days after lesion): prevented htt94Q-induced MSN degeneration
microglial activation, Iba1 immunoreactivity ([1]; AAV-htt94Q mice, vs vehicle): reduced microglial activation
